Among the data in PMC7480271, “A molecular-logic gate for COX-2 and NAT based on conformational and structural changes: visualizing the progression of liver disease” (Chemical Science, 2020) are Kd values, retold here.

The test concerns the target NAT (N-acetyltransferase). Put plainly: Kd measurement (Fig. S8, method not shown); fluorescence titration and 1H NMR of acetylation by NAT.

`COc1ccc2c(c1)c(CC(=O)NCCCCN1C(=O)c3cccc4cc(N)cc(c34)C1=O)c(C)n2C(=O)c1ccc(Cl)cc1` [3IAN4] displayed a dissociation constant Kd of 2.23 µM.

For orientation: Kd means the equilibrium constant for the complex coming apart. High values mean weaker binding, low ones tighter binding.
